US20220105109A1, “METHODS OF TREATING COVID-19 AND COMPOSITIONS THEREFOR” (priority 2020, published 2022)
Where two headings read alike, the source gives them in different places.

Tests used:
COVID-19 [1] = test: Anecdotal case of a subject with COVID-19 taking ASA; type: in vivo; conditions: one person; at least 0.4 g ASA orally on at least a few days of the approximately 14-day illness; also 80 mg famotidine daily
[2] = cited from earlier work; for suppressing ACE-inhibitor induced cough: patients
COVID-19 [3] = conditions: COVID-19 patients who had been taking famotidine; cited from earlier work

| SMILES | common respiratory symptoms and effects of COVID-19 (shortness of breath, cough) (COVID-19 [1]) | cough severity and cough frequency ([2]; 500 mg ASA daily) | patients with cough completely abolished ([2]; 500 mg ASA daily) | patients with cough significantly reduced ([2]; 500 mg ASA daily) | suppressing ACE-inhibitor induced cough ([2]; intermediate dose, 500 mg ASA daily) | suppressing ACE-inhibitor induced cough ([2]; low dose, 100 mg ASA daily) | clinical outcomes (intubations, deaths, symptoms) vs patients not taking famotidine (COVID-19 [3]) |
| --- | --- | --- | --- | --- | --- | --- | --- |
| CC(=O)Oc1ccccc1C(=O)O [ASA, acetylsalicylic acid] | none of the common respiratory symptoms and effects of COVID-19 | Significant reductions | five of 14 | 13 of 14 | extremely effective | ineffective |  |
| NC(N)=Nc1nc(CSCCC(N)=NS(N)(=O)=O)cs1 [famotidine] |  |  |  |  |  |  | better outcomes |
